Assay results taken from patent publication US20170044222A1, “Anti-Microbial Coatings and Devices” (priority 2015, published 2017).
“And” between values parts separate entries of the source, which are not always exact repeats. Identical values can stand only once. “Also recorded” adds a separate entry of the source. Ends that are not written are not given here.

Legend:
[1] = QCM-D mass attachment, layer thickness and areal mass of tether/peptide layers (Sauerbrey and Voigt-Kelvin); format: physicochemical; details: for Chrysophsin-1 attachment ng Voigt-Kelvin / Chrysophsin-1 attachment ng Sauerbrey: 10 μM peptide, 23° C; for Chrysophsin-1 attachment ng Voigt-Kelvin: Voigt-Kelvin viscoelastic model; for Chrysophsin-1 attachment ng Sauerbrey: mean of 3rd-11th overtones ± standard error; for C-CHY1 areal mass (ng/cm^2) Sauerbrey: Sauerbrey estimation divided by crystal surface area; for C-CHY1 areal mass (ng/cm^2) Voigt-Kelvin / PEG/C-CHY1 layer thickness (nm) Voigt-Kelvin: Voigt-Kelvin model; for C-CHY1 areal mass (ng/cm^2) Voigt-Kelvin: includes PEG spacer, attached C-CHY1 and trapped buffer; for PEG/C-CHY1 layer thickness (nm) Voigt-Kelvin: tether plus peptide film, or physically-adsorbed CHY1 film
Description: Referring to FIG. 1, the surface is functionalized with the anti-microbial peptide via a flexible linker molecule and exposed to bacteria in the QCM-D using QCM-D sensors as the substrate. Referring to FIG. 2 QCM-D was used to monitor covalent attachment in real-time of the PEG spacer molecule followed by introduction of the C-CHY1 peptide to the functionalized SiO2 surface (FIG. 2). According to the Sauerbrey calculation, the Δm due to PEG spacers is between 2 and 100 ng per crystal (Table 1, below; FIG. 3). The mass of PEG attached decreases with increasing tether length (FIG. 3). PEGylated surfaces show a rigid surface (ΔD values from +1×10^−6 to +2×10^−6 Hz) compared to the bulk fluid baseline, validating the use of Eqn. 1 and 2 for PEG layer calculations. When C-CHY1 is introduced, there is a rapid decrease of Δf corresponding to a Δm of 0.8 to 2.2 μg (Table 1) bound to the surface. This step is accompanied by a large increase in ΔD from near +2×10^−6 to +20×10^−6 Hz after the introduction of C-CHY1. Comparatively, CHY1 introduction leads to a Δf decrease corresponding a Δm of about 0.4 μg of CHY1 being physically-adsorbed on the surface.
Thus, parameters of the system were modeled using the Voigt-Kelvin extended viscoelastic model in Q-Tools software (Biolin Scientific, Stockholm, Sweden). This model corrects the Sauerbrey estimations for higher energy dissipation by adding terms to the Δf relation to mass (Eqn. 3) and ΔD relation to film rigidity (Eqn. 4).
Where ηL is the viscosity of the bulk liquid assumed to be water (kg/m·s); δL, and δf are the decay lengths of the acoustic wave in the bulk liquid and film (m), respectively; mq and mf […], respectively; ρf is the film density (kg/m^3). The layer was modeled to get numerical outputs for layer viscosity, density, and shear modulus (ηm, ρm, and μm), and film thickness. All overtones were modeled at once. The bulk liquid, predominantly PBS or PBS/EDTA, was assumed to have the same viscosity and density as water at 23° C. Model step size and output ranges were changed based on calculated theoretical values using estimated extended molecule size, and the lowest chi square value (χ^2) was taken. Once values of thickness (nm) and density (kg/m^3) were found with the model, the two were multiplied to calculate areal mass in ng/cm^2.
QCM-D: Covalent Linking of C-CHY1. SiO2-coated quartz crystal sensors from Biolin Scientific (Stockholm, Sweden) were used as immobilization platforms for the modified C-CHY1. Before use, SiO2 sensors were cleaned in the QCM-D at 40° C. using ethanol, DI water, 2% sodium dodecyl sulfate (w/v), DI water again, and then nitrogen dried. Lastly, sensor surfaces were treated for 2 min using an oxygen plasma cleaner (SPI Supplies, PA USA) to both clean and functionalize the surface. The SiO2 crystals were then silanized by submerging in a 10% (v/v) (3-Aminopropyl)-trimethoxysilane (APTMS) in methanol solution for 20 min. Each sensor was then rinsed twice thoroughly with methanol and DI water and placed in each QCM-D chamber.
Changes in frequency (Δf, Hz) and dissipation (ΔD, ×10-6 Hz) at the 3rd, 5th, 7th, 9th and 11th overtones were monitored at a constant 23° C. in all chambers using a Q-Sense E4 QCM-D system (Biolin Scientific, Stockholm, Sweden). All flow rates for the solutions were at 0.1 mL/min unless otherwise noted, and all volumes given are on a per chamber basis. PBS/EDTA (pH 7.2) buffer was used to establish a stable baseline measurement. Maleimide PEG N-hydroxysuccinimide ester molecules (MAL-PEG-NHS) with molecular weights (MW) of 866 (ThermoScientific, Waltham Mass., USA), 2000, or 7500 (JenKem Technology USA Inc., Allen, Tex. USA) were purchased. These will be referred to as PEG 866, PEG 2000 and PEG 7500, respectively. One mL of 100 μM MAL-PEG-NHS was flowed through the QCM-D and subsequently incubated for 30 min. Crystals were then rinsed with 1.2 mL of the PBS/EDTA (pH 7.2) buffer. […]

[2] = tested on: Escherichia coli HB101 (ATCC 33694); experiment: Bacterial mortality on peptide-coated QCM-D sensors (LIVE/DEAD BacLight), E. coli; format: cell-based; details: for mortality of E. coli: 1 hour exposure to surface-bound peptide, PEG binding at 23° C; for bactericidal activity against E. coli compared across tether lengths: C-CHY1 tethered via PEG 866, 2000 or 7500, 1 hour exposure
Description: (§1) Bacterial Strains and Culturing. Escherichia coli HB101 (ATCC 33694) and Staphylococcus aureus (ATCC 48366) were cultured overnight in Luria-Bertani broth (20 g/L). For QCM-D and toxicity studies, cells were harvested at the late logarithmic phase in their growth curve, as confirmed by absorbance measurements (OD(600)=0.7-1.0 arbitrary units) (Thermo Scientific USA, Waltham, Mass. USA). The cells were centrifuged at 1284×g (Centrific Thermo Scientific, Waltham, Mass. USA) and re-suspended in 0.01 M, pH 7.2 phosphate buffered saline (PBS) (Sigma Aldrich, St. Louis, Mo. USA) twice, and then diluted 100-fold to approximately 10^8 cfu/mL.
(§2) Changes in frequency (Δf, Hz) and dissipation (ΔD, ×10-6 Hz) at the 3rd, 5th, 7th, 9th and 11th overtones were monitored at a constant 23° C. in all chambers using a Q-Sense E4 QCM-D system (Biolin Scientific, Stockholm, Sweden). All flow rates for the solutions were at 0.1 mL/min unless otherwise noted, and all volumes given are on a per chamber basis. PBS/EDTA (pH 7.2) buffer was used to establish a stable baseline measurement. Maleimide PEG N-hydroxysuccinimide ester molecules (MAL-PEG-NHS) with molecular weights (MW) of 866 (ThermoScientific, Waltham Mass., USA), 2000, or 7500 (JenKem Technology USA Inc., Allen, Tex. USA) were purchased. These will be referred to as PEG 866, PEG 2000 and PEG 7500, respectively. One mL of 100 μM MAL-PEG-NHS was flowed through the QCM-D and subsequently incubated for 30 min. Crystals were then rinsed with 1.2 mL of the PBS/EDTA (pH 7.2) buffer. Similarly, 1.25 mL of 10 μM C-CHY1 solution was then flown over the sensors and allowed to incubate for 30 min. To rinse excess C-CHY1 off the surface and prepare for the introduction of 2 mL bacteria, a 45 min PBS rinse at 0.3 mL/min was first flowed through the QCM-D. The dilute bacterial solution was allowed to incubate for 1 hour, followed by a final 2 mL PBS (pH 7.2) rinse. The crystals were removed from the chambers and placed in individual petri dishes containing 0.85% (w/v) NaCl solution for bacterial viability testing.
QCM-D Control Experiments: Physical Adsorption of CHY1. Similarly, SiO2-coated sensors were used for physical adsorption of unmodified CHY1 and were prepared as described above. For this experiment there was no APTMS functionalization or PEG flow, thus, after cleaning, the crystals were placed immediately into the QCM-D, PBS (pH 7.2) was used to establish a baseline and 1.25 mL of 10 μM CHY1 solution was introduced. Then, flow was stopped and CHY1 was incubated for 30 min. […]
(§3) Bacterial Mortality. Bacterial mortality was determined immediately after the final rinse of the QCM-D experiment. […]

[3] = tested on: Staphylococcus aureus (ATCC 48366); experiment: Bacterial mortality on peptide-coated QCM-D sensors (LIVE/DEAD BacLight), S. aureus; format: cell-based; details: for mortality of S. aureus: 1 hour exposure to surface-bound peptide, PEG binding at 23° C; for bactericidal activity against S. aureus compared across tether lengths: C-CHY1 tethered via PEG 866, 2000 or 7500, 1 hour exposure
Description: as §1, §2
QCM-D Control Experiments: Physical Adsorption of CHY1. Similarly, SiO2-coated sensors were used for physical adsorption of unmodified CHY1 and were prepared as described above. For this experiment there was no APTMS functionalization or PEG flow, thus, after cleaning, the crystals were placed immediately into the QCM-D, PBS (pH 7.2) was used to establish a baseline and 1.25 mL of 10 μM CHY1 solution was introduced. Then, flow was stopped and CHY1 was incubated for 30 min. The rest of the protocol described in the previous section was then followed, including the 0.3 mL/min PBS rinse, bacterial flow, bacterial incubation and final PBS rinse. The crystals were removed from the chambers and placed in individual petri dishes containing 0.85% (w/v) NaCl solution for bacterial viability testing. For the next type of control, crystals that had never been coated with APTMS were cleaned and placed into the QCM-D chambers without functionalization. Starting with a PBS rinse, the crystals were exposed to bacteria solution for 1 hour and then rinsed before imaging. For the APTMS control, crystals were cleaned and functionalized with APTMS. Then the procedure continued starting with a PBS rinse (pH 7.2), bacteria introduction, incubation, and a final rinse before imaging. […]
as §3

epithelial cells = details: cited from earlier work
keratinocyte = details: cited from earlier work

Molecule: FFGWLIKGAIHAGKAIHGLIHRRRH [CHY1, Chrysophsin-1, reference compound]
- Chrysophsin-1 attachment ng Voigt-Kelvin ([1]; QCM-D): 373.3 ± 58.6 ng
- Chrysophsin-1 attachment ng Sauerbrey ([1]; QCM-D): 204.9 ± 7.99 ng
- C-CHY1 areal mass (ng/cm^2) Sauerbrey ([1]; QCM-D): 260.9 ± 10.2 ng/cm^2
- C-CHY1 areal mass (ng/cm^2) Voigt-Kelvin ([1]; QCM-D): 475.3 ± 74.6 ng/cm^2
- PEG/C-CHY1 layer thickness (nm) Voigt-Kelvin ([1]; QCM-D): 2.5±0.5 nm
- PEG/C-CHY1 layer thickness (nm) Voigt-Kelvin ([1]; QCM-D, listed as No Tether (PHYS-ADSORB)): 2.50 ± 0.49 nm
- Δm bound to the surface on peptide introduction ([1]; QCM-D, from Δf decrease on peptide flow, before rinse): about 0.4 μg
- peptide remaining adsorbed after rinse ([1]; physical adsorption, after PBS rinse): about 50%
- mortality of E. coli [2]: 52.3±1.2%
- mortality of S. aureus [3]: 56.7±1.1%

Molecule: Maleimide PEG N-hydroxysuccinimide ester [PEG 866]
- Chrysophsin-1 attachment ng Voigt-Kelvin ([1]; QCM-D): 835.2 ± 168 ng
- Chrysophsin-1 attachment ng Sauerbrey ([1]; QCM-D): 874.0 ± 48.8 ng
- C-CHY1 areal mass (ng/cm^2) Sauerbrey ([1]; QCM-D): 1113 ± 62.2 ng/cm^2
- C-CHY1 areal mass (ng/cm^2) Voigt-Kelvin ([1]; QCM-D): 1063±215 ng/cm^2
- mortality of E. coli [2]: 46±2.3%

Molecule: Maleimide PEG N-hydroxysuccinimide ester [PEG 2000]
- Chrysophsin-1 attachment ng Voigt-Kelvin ([1]; QCM-D): 2284 ± 113 ng
- Chrysophsin-1 attachment ng Sauerbrey ([1]; QCM-D): 2238 ± 60.4 ng
- C-CHY1 areal mass (ng/cm^2) Sauerbrey ([1]; QCM-D): 2850 ± 76.9 ng/cm^2
- C-CHY1 areal mass (ng/cm^2) Voigt-Kelvin ([1]; QCM-D): 2909±144 ng/cm^2
- PEG/C-CHY1 layer thickness (nm) Voigt-Kelvin ([1]; QCM-D): 17.6±1.3 nm and 17.6±1.32 nm
- bactericidal activity against E. coli compared across tether lengths [2]: lowest ability to kill
- bactericidal activity against S. aureus compared across tether lengths [3]: lowest ability to kill

Molecule: CC[C@H](C)[C@H](NC(=O)CN)C(=O)NCC(=O)N[C@@H](C)C(=O)N[C@H](C(=O)N[C@@H](CC(C)C)C(=O)N[C@@H](CCCCN)C(=O)N[C@H](C(=O)N[C@@H](CC(C)C)C(=O)N[C@H](C(=O)N[C@H](C(=O)NCC(=O)N[C@@H](CC(C)C)C(=O)N1CCC[C@H]1C(=O)N[C@@H](C)C(=O)N[C@@H](CC(C)C)C(=O)N[C@H](C(=O)N[C@@H](CO)C(=O)N[C@@H](Cc1c[nH]c2ccccc12)C(=O)N[C@H](C(=O)N[C@@H](CCCCN)C(=O)N[C@@H](CCCNC(=N)N)C(=O)N[C@@H](CCCCN)C(=O)N[C@@H](CCCNC(=N)N)C(=O)N[C@@H](CCC(N)=O)C(=O)N[C@@H](CCC(N)=O)C(N)=O)[C@@H](C)CC)[C@@H](C)CC)[C@@H](C)O)[C@@H](C)O)C(C)C)C(C)C [melittin]
- concentration with significant toxicity against epithelial cells (epithelial cells): 1.2

Molecule: LL-37: human derived cathelicidin peptide
- concentration that negatively affects keratinocyte viability (keratinocyte): 10

Molecule: Maleimide PEG N-hydroxysuccinimide ester [PEG 7500]
- Chrysophsin-1 attachment ng Voigt-Kelvin ([1]; QCM-D): 1870 ± 176 ng
- Chrysophsin-1 attachment ng Sauerbrey ([1]; QCM-D): 1753 ± 43.9 ng
- C-CHY1 areal mass (ng/cm^2) Sauerbrey ([1]; QCM-D): 2232 ± 55.0 ng/cm^2
- C-CHY1 areal mass (ng/cm^2) Voigt-Kelvin ([1]; QCM-D): 2381±223 ng/cm^2 and 2381 ± 224 ng/cm^2
- PEG/C-CHY1 layer thickness (nm) Voigt-Kelvin ([1]; QCM-D): 21.9±1.86 nm
- extension of layer: modelled thickness as percent of theoretical maximum thickness ([1]; Voigt-Kelvin thickness vs theoretical maximum): 38%
- bactericidal activity against E. coli compared across tether lengths [2]: most efficient bactericidal activity; also recorded: highest activity
- mortality of S. aureus [3]: 64±4.5%
- bactericidal activity against S. aureus compared across tether lengths [3]: most efficient bactericidal activity; also recorded: highest activity
- mortality of S. aureus after temperature-optimized PEG binding ([3]; PEG 7500 binding at 55° C, back to 23° C for C-CHY1 binding and 1 hour S. aureus incubation): 91±6.9%
